Results as given in US20240239806A1, “COMPOUNDS, COMPOSITIONS AND METHODS OF TREATING DISORDERS” (Chengdu Anticancer Bioscience, Ltd., priority 2021, published 2024).
Entries after “also recorded” stand apart in the source; their conditions may differ. Read-outs that look alike come from different tables or passages of the source.

Assays:
[1] = tested on: human breast cancer cell line MDA-MB-231; assay: Xenograft assay; type: in vivo; conditions: MDA-MB-231 xenograft, Nu/Nu mice, 25 mg/kg oral gavage twice a day for 7 days
Procedure: (§1) Xenografts were initiated in immunocompromised (Nu/Nu) mice with the human lung adenocarcinoma cell line NCI-H23 (FIG. 4A) and the human breast cancer cell line MDA-MB-231 (FIG. 4B). Seven million cells were injected subcutaneously into each mouse and treatment was initiated when the average tumor volumes reached 150 mm3 (n=5/group). Tumor-bearing mice were randomized into different groups to receive either vehicle or indicated compounds. The compounds were administered through oral gavage twice a day for 7 days. For these experiments, all compounds were first dissolved in DMSO and then diluted 1:10 into a mixture containing 50% PEG300 and 49% PBS, 1% Tween 80, pH2.2. 100 ul of drug solution was administered with each dose to each a dose of 25 mg/kg. Tumor volumes were determined from digital caliper raw data by using the formula: Volume (mm3)=(L×W^2)/2. The value W (Width) is the smaller of two perpendicular tumor axes and the value L (Length) is the larger of two perpendicular axes. Mean tumor volumes were calculated for each treatment group at the start point (day 0) and the endpoint (day 7). The percentage change of tumor volumes, defined as (Tumor […]˜Tumor Volume^day0)/Tumor Volume^day0×100% is presented.

[2] = tested on: human lung adenocarcinoma cell line NCI-H23; assay: Xenograft assay; type: in vivo; conditions: Nu/Nu mice, 25 mg/kg oral gavage twice a day for 7 days
Procedure: as §1

[3] = tested on: NCI-H23; assay: MECP in cancer cell line; type: cell-based; conditions: Homo sapiens
Method in brief: (§2)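 Cells grown in DMEM with 5% FBS at 37° C, 5% CO2, then treated at 1 nM to 30 μM. Imaging at 24, 48 or 72 h scored mitotic arrest or DNA-content change; hits show transient mitotic-index rise at 24 h and polyploid accumulation at 48 h; values binned A (≤1.0 μM) to D (>30.0 μM).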

[4] = tested on: NCI-N87; assay: MECP in cancer cell line; type: cell-based; conditions: Homo sapiens
Method in brief: as §2

[5] = tested on: RPEMYC^H2B-GFP cells; assay: Phenotypic screening assay (mitotic arrest, polyploidy); type: cell-based; conditions: 1 nM to 30 μM; for IC50: read-out: Proliferative arrest (>50%)
Method in brief: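 RPE cells expressing MYC and H2B-EGFP treated with compound at 1 nM–30 μM; mitotic index scored at 24 h and polyploidy (DNA content) at 48 h by automated imaging, with reads at 24, 48 or 72 h. Hits show transient mitotic arrest followed by polyploid accumulation.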

[6] = tested on: MDA-MB-231; assay: MECP in cancer cell line; type: cell-based; conditions: Homo sapiens
Method in brief: as §2

[7] = tested on: T2 HCC; assay: MECP in cancer cell line; type: cell-based; conditions: Mus musculus
Method in brief: as §2

[8] = tested on: Hela; assay: MECP in cancer cell line; type: cell-based; conditions: Homo sapiens
Method in brief: as §2

[9] = tested on: HCT116; assay: MECP in cancer cell line; type: cell-based; conditions: Homo sapiens, HCT-116
Method in brief: as §2

[10] = tested on: SW480; assay: MECP in cancer cell line; type: cell-based; conditions: Homo sapiens
Method in brief: as §2

[11] = tested on: A549; assay: MECP in cancer cell line; type: cell-based; conditions: Homo sapiens
Method in brief: as §2

[12] = tested on: MDA-MB-231; assay: MTT assay of cellular proliferation; type: cell-based; conditions: Homo sapiens; MDA-MB-231, MTT, 50% inhibition of cellular proliferation
Method in brief: (§3)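 Cells in DMEM with 5% FBS, seeded to 20–30% confluence over 15–24 h, then exposed to compound from 1 nM to 30 μM. MTT added at endpoint for 3–4 h, formazan solubilized and read at A570. EC50 taken as concentration giving 50% inhibition of proliferation.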

[13] = tested on: T2 HCC; assay: MTT assay of cellular proliferation; type: cell-based; conditions: Mus musculus, 50% inhibition of cellular proliferation
Method in brief: as §3

[14] = tested on: Hela; assay: MTT assay of cellular proliferation; type: cell-based; conditions: Homo sapiens, 50% inhibition of cellular proliferation
Method in brief: as §3

[15] = tested on: NCI-H23; assay: MTT assay of cellular proliferation; type: cell-based; conditions: Homo sapiens, 50% inhibition of cellular proliferation
Method in brief: as §3

[16] = tested on: HCT116; assay: MTT assay of cellular proliferation; type: cell-based; conditions: Homo sapiens, HCT-116, 50% inhibition of cellular proliferation
Method in brief: as §3

[17] = tested on: SW480; assay: MTT assay of cellular proliferation; type: cell-based; conditions: Homo sapiens, 50% inhibition of cellular proliferation
Method in brief: as §3

[18] = tested on: A549; assay: MTT assay of cellular proliferation; type: cell-based; conditions: Homo sapiens, 50% inhibition of cellular proliferation
Method in brief: as §3

[19] = tested on: NCI-N87; assay: MTT assay of cellular proliferation; type: cell-based; conditions: Homo sapiens, 50% inhibition of cellular proliferation
Method in brief: as §3

[20] = tested on: Human Cancer Cells; assay: Anchorage-independent growth in 3D culture (FIG. 3); type: cell-based; conditions: FIG. 3 legend, cell line not named
From the text: (§4) Measuring the ability of cells to grow in soft agar has been popularly believed as the gold standard assay for cellular transformation in vitro. In the Soft Agar Assay, cells grow from single cells to cell colonies in a semi-solid agar solution that keeps them away from the solid surface and allows growth in an anchorage-independent way.
(§5) The anchorage-independent growth of cells is one of the hallmarks of cancer cells. Normal epithelial cells are supported by basement membranes that provide survival and proliferative signals while undergo a type of apoptosis called anoikis when lose their attachment to the extracellular matrix. Cancer cells, in contrast, evade detachment-induced apoptosis, leading to uncontrolled proliferation and metastasis. The Soft Agar Colony Formation Assay allows testing of the therapeutic efficacy of compounds against anchorage-independent 3D growth of cancer cells in vin. The assay was performed in 6-well plates with two layers of agar. For the first, 0.75% agar in DMEM medium was melted in a microwave oven and poured to form a bottom layer. Once solidified, 10-100K cells in 1 ml of DMEM containing 0.35% agar was added to form the top layer, which was later covered with 0.5 ml of DMEM. Cell culture medium was changed once every two days until colonies were ready to photograph. We test the antitumor activity of select compounds in soft agar colony formation assays. […] The suppression of growth of these three cancer cell lines in 3D culture is consistent with the potent impact of these compounds on cellular proliferation in 2D culture.

[21] = tested on: cervical cancer cell line Hela; assay: Soft agar colony formation assay; type: cell-based, human
From the text: as §4, §5

[22] = tested on: NCI-H596; assay: MECP in cancer cell line; type: cell-based; conditions: Homo sapiens
Method in brief: as §2

[23] = tested on: T98G; assay: MECP in cancer cell line; type: cell-based; conditions: Homo sapiens
Method in brief: as §2

[24] = tested on: NCI-H460; assay: MECP in cancer cell line; type: cell-based; conditions: Homo sapiens
Method in brief: as §2

[25] = tested on: NCI-H596; assay: MTT assay of cellular proliferation; type: cell-based; conditions: Homo sapiens, 50% inhibition of cellular proliferation
Method in brief: as §3

[26] = tested on: T98G; assay: MTT assay of cellular proliferation; type: cell-based; conditions: Homo sapiens, 50% inhibition of cellular proliferation
Method in brief: as §3

[27] = tested on: NCI-H460; assay: MTT assay of cellular proliferation; type: cell-based; conditions: Homo sapiens, 50% inhibition of cellular proliferation
Method in brief: as §3

[28] = read-out: Min. Effective conc. for Polyploidy (≥5%)

EC50 [12] [nM]	EC50 [13] [nM]	EC50 [14] [nM]	EC50 [15] [nM]	EC50 [16] [nM]	EC50 [17] [nM]	EC50 [18] [nM]	Structure (SMILES)	tumor growth (percentage change of tumor volumes) [1]	tumor growth (percentage change of tumor volumes) [2]	minimal effective concentration [3] [µM]	minimal effective concentration [4] [µM]	minimal effective concentration [5, 28] [µM]	minimal effective concentration ([5]; read-out: Mitotic Arrest (≥5%)) [µM]	IC50 [5] [nM]	minimal effective concentration [6] [µM]	minimal effective concentration [7] [µM]	minimal effective concentration [8] [µM]	minimal effective concentration [9] [µM]	minimal effective concentration [10] [µM]	minimal effective concentration [11] [µM]	other results
1 to 1000	1 to 1000	1 to 1000	1 to 1000	1 to 1000	1 to 1000	1 to 1000	COc1cc(Oc2ccnc3cc(OC)c(OC)cc23)cc(-n2cccn2)c1 [Compound 26, 6,7-dimethoxy-4-(3-methoxy-5-(1H-pyrazol-1-yl)phenoxy)quinoline]	suppress the growth; also recorded: suppressing the tumor growth	suppress the growth; also recorded: suppressing the tumor growth	0.001 to 1	0.001 to 1	0.001 to 1	0.001 to 1	1 to 1000	0.001 to 1	0.001 to 1	0.001 to 1	0.001 to 1	0.001 to 1	0.001 to 1	EC50 [19]: 1 to 1000 nM
1 to 1000	1 to 1000	1 to 1000	1 to 1000	1 to 1000	1 to 1000	1 to 1000	COc1cc(Oc2ccnc3ccsc23)cc(-n2cccn2)c1 [Compound 40, 7-(3-methoxy-5-(1H-pyrazol-1-yl)phenoxy)thieno[3,2-b]pyridine]	suppress the growth; also recorded: suppressing the tumor growth	suppress the growth; also recorded: suppressing the tumor growth	0.001 to 1	0.001 to 1	0.001 to 1	0.001 to 1	1 to 1000	0.001 to 1	0.001 to 1	0.001 to 1	0.001 to 1	0.001 to 1	0.001 to 1	EC50 [19]: 1 to 1000 nM
1 to 1000	1 to 1000	1 to 1000	1 to 1000	1 to 1000	–	–	COC(=O)c1cc(OC)cc(Oc2ccnc3ccccc23)c1 [Compound 8, Methyl 3-methoxy-5-(quinolin-4-yloxy)benzoate]	–	–	0.001 to 1	–	0.001 to 1	0.001 to 1	1 to 1000	0.001 to 1	0.001 to 1	0.001 to 1	0.001 to 1	–	–	Anchorage-independent Growth of Human Cancer Cells in 3D Culture [20]: Suppress the Anchorage-independent Growth; anchorage-independent growth in soft agar [21]: effectively suppressed the anchorage-independent growth; minimal effective concentration [22]: 0.001 to 1 µM; minimal effective concentration [23]: 1 to 10 µM; minimal effective concentration [24]: 1 to 10 µM; EC50 [25]: 1000 to 10000 nM; EC50 [26]: 1000 to 10000 nM; EC50 [27]: > 30000 nM
1 to 1000	1 to 1000	1 to 1000	1 to 1000	1 to 1000	1 to 1000	1 to 1000	COc1cc(NC(C)=O)cc(Oc2ccnc3ccsc23)c1 [Compound 43, N-(3-methoxy-5-(thieno[3,2-b]pyridin-7-yloxy)phenyl)acetamide]	suppress the growth; also recorded: suppressing the tumor growth and even eliciting tumor regression	suppress the growth; also recorded: suppressing the tumor growth and even eliciting tumor regression	0.001 to 1	0.001 to 1	0.001 to 1	0.001 to 1	1 to 1000	0.001 to 1	0.001 to 1	0.001 to 1	0.001 to 1	0.001 to 1	0.001 to 1	EC50 [19]: 1 to 1000 nM
1 to 1000	1 to 1000	1 to 1000	1 to 1000	1 to 1000	1 to 1000	1 to 1000	COc1cc(Oc2ccnc3ccc(Br)cc23)cc(-n2cccn2)c1 [Compound 21, 6-bromo-4-(3-methoxy-5-(1H-pyrazol-1-yl)phenoxy)quinoline]	suppress the growth; also recorded: suppressing the tumor growth	suppress the growth; also recorded: suppressing the tumor growth	0.001 to 1	0.001 to 1	0.001 to 1	0.001 to 1	1 to 1000	0.001 to 1	0.001 to 1	0.001 to 1	0.001 to 1	0.001 to 1	0.001 to 1	EC50 [19]: 1 to 1000 nM
